Results reported in the supplement of paper PMC10307832.

Legend:
Assay in all cases: relative viability (nuclei count vs DMSO), 5 days (fraction); higher = more cells survive
HCC-15 = tested on: HCC-15
Procedure, shortened: (§1)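 For relative viability, nuclei counts in treated wells were divided by those in vehicle wells. Lung cancer cell lines had been pin-tool dosed in 1536-well plates the day after seeding and cultured for 5 days, then fixed and stained in one step (final 0.05% Triton X-100, 1% formaldehyde, 1 ug/ml Hoechst) and imaged at 4×. Doses were one drug alone or a fixed anchor-drug dose plus five library-drug doses (not always all listed) in √10 steps, and values are duplicate-plate medians.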

NCI-H1993 = tested on: NCI-H1993
Procedure, shortened: as §1

NCI-H358 = tested on: NCI-H358
Procedure, shortened: as §1

COR-L23 = tested on: COR-L23
Procedure, shortened: as §1

HARA = tested on: HARA
Procedure, shortened: as §1

NCI-H1793 = tested on: NCI-H1793
Procedure, shortened: as §1

ABC-1 = tested on: ABC-1
Procedure, shortened: as §1

NCI-H2228 = tested on: NCI-H2228
Procedure, shortened: as §1

HCC-78 = tested on: HCC-78
Procedure, shortened: as §1

NCI-H2405 = tested on: NCI-H2405
Procedure, shortened: as §1

SK-LU-1 = tested on: SK-LU-1
Procedure, shortened: as §1

NCI-H2126 = tested on: NCI-H2126
Procedure, shortened: as §1

NCI-H1395 = tested on: NCI-H1395
Procedure, shortened: as §1

LC-2-ad = tested on: LC-2-ad
Procedure, shortened: as §1

NCI-H1944 = tested on: NCI-H1944
Procedure, shortened: as §1

HCC-366 = tested on: HCC-366
Procedure, shortened: as §1

HOP-62 = tested on: HOP-62
Procedure, shortened: as §1

EMC-BAC-2 = tested on: EMC-BAC-2
Procedure, shortened: as §1

NCI-H23 = tested on: NCI-H23
Procedure, shortened: as §1

NCI-H838 = tested on: NCI-H838
Procedure, shortened: as §1

NCI-H2023 = tested on: NCI-H2023
Procedure, shortened: as §1

SMILES: Cc1sc2c(c1C)C(c1ccc(Cl)cc1)=N[C@@H](CC(=O)OC(C)(C)C)c1nnc(C)n1-2 [JQ1] + CS(=O)(=O)CCNCc1ccc(-c2ccc3ncnc(Nc4ccc(OCc5cccc(F)c5)c(Cl)c4)c3c2)o1 [Lapatinib] (partner 2 µM)
- relative viability (HCC-15; first compound 0.04 µM): 0.778
- relative viability (HCC-15; first compound 0.4 µM): 0.85
- relative viability (HCC-15; first compound 1.265 µM): 0.655
- relative viability (HCC-15; first compound 4 µM): 0.592
- relative viability (NCI-H1993; first compound 0.04 µM): 0.825
- relative viability (NCI-H1993; first compound 0.1265 µM): 0.812
- relative viability (NCI-H1993; first compound 0.4 µM): 0.676
- relative viability (NCI-H1993; first compound 1.265 µM): 0.702
- relative viability (NCI-H1993; first compound 4 µM): 0.65
- relative viability (NCI-H358; first compound 0.04 µM): 0.467
- relative viability (NCI-H358; first compound 0.1265 µM): 0.494
- relative viability (NCI-H358; first compound 0.4 µM): 0.647
- relative viability (NCI-H358; first compound 1.265 µM): 0.561
- relative viability (NCI-H358; first compound 4 µM): 0.577
- relative viability (COR-L23; first compound 0.04 µM): 0.926
- relative viability (COR-L23; first compound 0.1265 µM): 0.782
- relative viability (COR-L23; first compound 0.4 µM): 0.942
- relative viability (COR-L23; first compound 1.265 µM): 0.773
- relative viability (COR-L23; first compound 4 µM): 0.623
- relative viability (HARA; first compound 0.04 µM): 0.871
- relative viability (HARA; first compound 0.1265 µM): 0.559
- relative viability (HARA; first compound 0.4 µM): 0.642
- relative viability (HARA; first compound 1.265 µM): 0.317
- relative viability (HARA; first compound 4 µM): 0.165
- relative viability (NCI-H1793; first compound 0.04 µM): 0.617
- relative viability (NCI-H1793; first compound 0.1265 µM): 0.776
- relative viability (NCI-H1793; first compound 0.4 µM): 0.805
- relative viability (NCI-H1793; first compound 1.265 µM): 0.652
- relative viability (NCI-H1793; first compound 4 µM): 0.576
- relative viability (ABC-1; first compound 0.04 µM): 1.11
- relative viability (ABC-1; first compound 0.1265 µM): 0.82
- relative viability (ABC-1; first compound 0.4 µM): 1.04
- relative viability (ABC-1; first compound 1.265 µM): 0.992
- relative viability (ABC-1; first compound 4 µM): 0.727
- relative viability (NCI-H2228; first compound 0.04 µM): 0.902
- relative viability (NCI-H2228; first compound 0.1265 µM): 0.876
- relative viability (NCI-H2228; first compound 0.4 µM): 0.751
- relative viability (NCI-H2228; first compound 1.265 µM): 0.374
- relative viability (NCI-H2228; first compound 4 µM): 0.327
- relative viability (HCC-78; first compound 0.04 µM): 0.861
- relative viability (HCC-78; first compound 0.1265 µM): 0.53
- relative viability (HCC-78; first compound 0.4 µM): 0.493
- relative viability (HCC-78; first compound 1.265 µM): 0.391
- relative viability (HCC-78; first compound 4 µM): 0.28
- relative viability (NCI-H2405; first compound 0.04 µM): 1.19
- relative viability (NCI-H2405; first compound 0.4 µM): 1.12
- relative viability (NCI-H2405; first compound 1.265 µM): 0.587
- relative viability (NCI-H2405; first compound 4 µM): 0.485
- relative viability (SK-LU-1; first compound 0.04 µM): 0.891
- relative viability (SK-LU-1; first compound 0.1265 µM): 0.709
- relative viability (SK-LU-1; first compound 0.4 µM): 0.838
- relative viability (SK-LU-1; first compound 1.265 µM): 0.388
- relative viability (SK-LU-1; first compound 4 µM): 0.271
- relative viability (NCI-H2126; first compound 0.04 µM): 0.759
- relative viability (NCI-H2126; first compound 0.1265 µM): 0.746
- relative viability (NCI-H2126; first compound 0.4 µM): 0.755
- relative viability (NCI-H2126; first compound 1.265 µM): 0.604
- relative viability (NCI-H2126; first compound 4 µM): 0.68
- relative viability (NCI-H1395; first compound 0.04 µM): 0.931
- relative viability (NCI-H1395; first compound 0.1265 µM): 0.733
- relative viability (NCI-H1395; first compound 0.4 µM): 0.935
- relative viability (NCI-H1395; first compound 1.265 µM): 0.492
- relative viability (NCI-H1395; first compound 4 µM): 0.487
- relative viability (LC-2-ad; first compound 0.04 µM): 0.92
- relative viability (LC-2-ad; first compound 0.1265 µM): 0.436
- relative viability (LC-2-ad; first compound 0.4 µM): 0.409
- relative viability (LC-2-ad; first compound 1.265 µM): 0.158
- relative viability (LC-2-ad; first compound 4 µM): 0.155
- relative viability (NCI-H1944; first compound 0.04 µM): 0.79
- relative viability (NCI-H1944; first compound 0.1265 µM): 0.543
- relative viability (NCI-H1944; first compound 0.4 µM): 0.614
- relative viability (NCI-H1944; first compound 1.265 µM): 0.584
- relative viability (NCI-H1944; first compound 4 µM): 0.454
- relative viability (HCC-366; first compound 0.04 µM): 1.02
- relative viability (HCC-366; first compound 0.4 µM): 0.877
- relative viability (HCC-366; first compound 1.265 µM): 0.461
- relative viability (HCC-366; first compound 4 µM): 0.472
- relative viability (HOP-62; first compound 0.04 µM): 1.07
- relative viability (HOP-62; first compound 0.1265 µM): 0.724
- relative viability (HOP-62; first compound 0.4 µM): 0.636
- relative viability (HOP-62; first compound 1.265 µM): 0.241
- relative viability (HOP-62; first compound 4 µM): 0.126
- relative viability (EMC-BAC-2; first compound 0.04 µM): 0.841
- relative viability (EMC-BAC-2; first compound 0.1265 µM): 0.905
- relative viability (EMC-BAC-2; first compound 0.4 µM): 0.949
- relative viability (EMC-BAC-2; first compound 1.265 µM): 0.551
- relative viability (EMC-BAC-2; first compound 4 µM): 0.495
- relative viability (NCI-H23; first compound 0.04 µM): 0.956
- relative viability (NCI-H23; first compound 0.1265 µM): 0.943
- relative viability (NCI-H23; first compound 0.4 µM): 1.09
- relative viability (NCI-H23; first compound 1.265 µM): 0.301
- relative viability (NCI-H23; first compound 4 µM): 0.362
- relative viability (NCI-H838; first compound 0.04 µM): 0.991
- relative viability (NCI-H838; first compound 0.1265 µM): 0.462
- relative viability (NCI-H838; first compound 0.4 µM): 0.454
- relative viability (NCI-H838; first compound 1.265 µM): 0.237
- relative viability (NCI-H838; first compound 4 µM): 0.191
- relative viability (NCI-H2023; first compound 0.04 µM): 0.738
- relative viability (NCI-H2023; first compound 0.1265 µM): 0.463
- relative viability (NCI-H2023; first compound 0.4 µM): 0.443
- relative viability (NCI-H2023; first compound 1.265 µM): 0.334
- relative viability (NCI-H2023; first compound 4 µM): 0.258
